From patent US5594009A, “Fused pyrrolocarbazoles” (priority 1995, dated 1997)
Like-named read-outs stand apart in the source and are kept apart here.

What was measured:
protein kinase C = test: PKC Activity Inhibition Assay; type: biochemical
Protocol: Fused pyrrolocarbazoles inhibited the activity of protein kinase C (Table VI). The protein kinase C assay has been disclosed (Murakata et al., U.S. Pat. No. 4,923,986; Kikkawa et al., J. Biol. Chem. 257:13341-13348 (1982)). The assay was performed with several concentrations of fused pyrrolocarbazoles. The concentration at which protein kinase C was 50% inhibited (IC50) was determined.

chick DRG neurons = test: DRG Neuron Survival Assay (calcein AM); type: cell-based; conditions: 48 hours; for viability at 0.25 µM: 250 nM
Protocol: Fused pyrrolocarbazoles promoted dorsal root ganglion (DRG) neuronal survival in cultures of chick DRG neurons. Cell survival was measured by uptake of calcein AM, an analog of the viable dye, fluorescein diacetate. Calcein is taken up by viable cells and cleaved intracellularly to fluorescent salts which are retained by intact membranes of viable cells. Microscopic counts of viable neurons correlate directly with relative fluorescence values obtained with the fluorimetric viability assay. This method thus provides a reliable and quantitive measurement of cell survival in the total cell population of a given culture (Bozyczko-Coyne et al., J. Neur. Meth. 50:205-216, 1993).
Methods: Dorsal root ganglia were dissected from embryonic age day 9 chick embryos and dissociated cells prepared by subsequent Dispase (neutral protease, Collaborative Research) dissociation. Neurons were seeded at low density (3×10^4 cells/cm^2) into 96 well poly-L-ornithine and laminin coated plates. Cells were cultured for 48 hours in serum-free N2 medium (Bottenstein and Sato, 1979) at 37° C. in a humidified atmosphere, 5% CO2 /95% air. Cell survival was assessed at 48 hours using the viable fluorimetric assay described above.

AT-2 cells = test: Inhibition of Growth of Prostate Cancer Cell Line (MTS assay); type: cell-based; conditions: 72 h, read-out: AT-2 cell growth IC50
Protocol: AT-2 cells are a prostate cancer cell sub-line derived from the Dunning H tumor, graciously provided to us by Dr. John Isaacs (John Hopkins, M. D.). Unlike the Dunning H tumor cells, AT-2 cells can be grown in vitro.
Methods: At-2 cells ([…]) were plated on tissue culture plastic in 96-well plates in the presence of RPMI-1640 medium containing 10% fetal calf serum, 250 nM dexamethasone, 2 mM glutamine, 1 mM sodium pyruvate, and penicillin/streptomycin antibiotics. The next day, compounds were added at 4 concentrations (10, 1, 0.1, 0.01 μM) to determine the approximate IC50 range. Cultures were assayed 3 days later for cell number using the MTS [(3-(4,5-dimethylthiazol-2-yl)-5-(3-carboxymethoxyphenyl)-2-(4-sulfophenyl)-2H-tetrazolium, inner salt)] assay. The MTS assay (purchased as a kit from Promega) measures the formation of an aqueous soluble formazan (detected by a plate reader at 490nm) produced by the bioreduction of a tetrazolium compound (MTS) in metabolically active cells via mitochondrial succinate dehydrogenase. After determining linearity of the substrate incubation time over a range of cell plating densities, the amount of product measured is directly proportional to cell number. MTS (333 ug/ml) and 25 μM phenazine methosulfate are mixed and added directly to the culture medium, and incubated at 37° C. in the 5% CO2 /95% air incubator for 0.5-4 h. Absorbance of the product at 490 nm is read on the BIO-TEK plate reader. Background values were obtained from wells containing culture medium with substrate solution, but no cells. In addition, values were also obtained from wells containing cells plated at day 0 and assayed on the day compound was added (day 1) in order to determine the number of cells at the time compound was added. After the initial dose-finding experiment was completed, subsequent experiments were set up so that there were 3 or more concentrations near the predicted IC50.

[1] = system: choline acetyltransferase (ChAT) activity in dissociated rat embryonic spinal cord culture; test: Spinal Cord ChAT Activity Assay; type: cell-based; conditions: ChAT measured after 48 hours
Protocol: In these assays, a fused pyrrolocarbazole was directly added to a dissociated spinal cord culture. […] The fused pyrrolocarbazole was added on the same day the dissociated spinal cord cell culture was initiated.
Methods: Fetal rat spinal cord cells were dissociated, and experiments were performed as described (Smith et al., J. Cell Biology., 101:1608-1621 (1985); Glicksman et al., J. Neurochem. 61:210-221 (1993)). Dissociated cells were prepared from spinal cords dissected from rats (embryonic day 14-15) by standard trypsin dissociation techniques (Smith et al., J. Cell Biology 10:1608-1621 (1985)). Cells were plated at 6×10^5 cells/cm^2 on poly-1-ornithine coated plastic tissue culture wells in serum-free N2 medium supplemented with 0.05% bovine serum albumin (BSA) (Bottenstein et al., PNAS USA 514-517 (1979)). Cultures were incubated at 37° C. in a humidified atmosphere of 5% CO2 /95% air for 48 hours. ChAT activity was measured after 2 days it vitro using a modification of the Fonnum procedure (Fonnum, J. Neurochem. 24:407-409 (1975)) according to McManaman et al. and Glicksman et al. (McManaman et al., Developmental Biology 125:311-320 (1988); Glicksman et al., J. Neurochem. 61:210-221 (1993)).

trkA tyrosine kinase = trkA tyrosine kinase (Homo sapiens, UniProt P04629); test: trkA Tyrosine Kinase Activity Inhibition Assay (ELISA); type: biochemical
Chain of trkA tyrosine kinase (P04629 33-796): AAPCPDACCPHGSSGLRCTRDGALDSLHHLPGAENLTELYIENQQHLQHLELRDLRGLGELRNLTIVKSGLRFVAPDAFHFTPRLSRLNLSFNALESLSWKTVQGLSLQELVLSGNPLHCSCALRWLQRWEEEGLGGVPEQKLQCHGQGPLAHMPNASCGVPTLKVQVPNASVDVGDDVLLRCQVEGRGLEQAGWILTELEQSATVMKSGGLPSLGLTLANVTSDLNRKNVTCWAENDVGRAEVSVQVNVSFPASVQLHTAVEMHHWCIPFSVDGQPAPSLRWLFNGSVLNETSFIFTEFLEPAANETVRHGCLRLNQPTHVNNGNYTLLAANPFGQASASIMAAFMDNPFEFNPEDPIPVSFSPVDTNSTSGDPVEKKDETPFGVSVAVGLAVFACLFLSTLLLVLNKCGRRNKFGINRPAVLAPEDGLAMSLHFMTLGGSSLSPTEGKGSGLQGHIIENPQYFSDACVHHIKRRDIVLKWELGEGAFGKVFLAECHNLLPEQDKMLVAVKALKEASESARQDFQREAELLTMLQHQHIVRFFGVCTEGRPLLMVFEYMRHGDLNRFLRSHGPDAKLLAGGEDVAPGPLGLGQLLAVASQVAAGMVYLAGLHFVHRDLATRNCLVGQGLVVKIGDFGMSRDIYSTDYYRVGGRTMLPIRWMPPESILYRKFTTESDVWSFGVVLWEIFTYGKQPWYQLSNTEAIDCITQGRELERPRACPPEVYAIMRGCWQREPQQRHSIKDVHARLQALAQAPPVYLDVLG
Protocol: These compounds were then tested for the ability to inhibit substrate phosphorylation by the trkA tyrosine kinase.
Plates were washed three times with TBST, followed by two washes with TBS (TBST sans Tween-20). Fused pyrrolocarbazoles were then added at various concentrations to a reaction mixture (50 mM HEPES, pH 7.4, 5 mM MnCl2, 5 mM MgCl2, 140 mM NaCl, 16 μM ATP, and 15 ng trkA in a total volume of 1001 μL.). As a negative control, 100 mM EDTA was included in the reaction solution. The plates were then incubated at 37° C. for 15 min. The detection antibody, monoclonal anti-phosphotyrosine antibody (UBI), was added at a dilution of 1:2000 in TBST, and incubated for 1 hour at 37° C. Plates were then washed three times with TBST, followed by a 1 hour incubation at 37° C. with alkaline phosphatase-labeled goat anti-mouse IgG (1:2000 in TBST (Bio-Rad)). After washing three times with TBST followed by two washes with TBS, a colored product was produced by using NADPH as substrate for alkaline phosphatase, and the coupled reactions of diaphorase and alcohol dehydrogenase (GIBCO-BRL ELISA amplification system). The colored product was read at 490 nm in a microplate reader (Biotek).

[2] = system: ChAT activity of basal forebrain cultures; test: Basal Forebrain ChAT Activity Assay; type: cell-based, rat
Protocol: Fused pyrrolocarbazoles were tested for the ability to increase ChAT activity of basal forebrain cultures.
Methods: The basal forebrain was dissected from rat embryos (day 17 or 18 embryos) and the cells were dissociated with a neutral protease (Dispase™, Collaborative Research). Neurons were plated at a density of 5×10^4 cells/well (1.5×10^5 cells/cm^2) in poly-1-ornithine and laminin coated plates. Cells were cultured in serum-free N2 medium containing 0.05% BSA at 37° C. in a humidified atmosphere, 5% CO2 /95% air. ChAT activity was assessed 5 days after plating by using the ChAT assay as described in Example III(A)(1).

[3] = system: NT-3 induced ChAT activity of rat basal forebrain cultures; test: Enhancement of Neurotrophin (NT-3) Activity Assay, ChAT activity in basal forebrain cultures; type: cell-based
Protocol: Fused pyrrolocarbazoles were tested for the ability to enhance the activity of the neurotrophin NT-3 in basal forebrain cultures. ChAT activity was assayed as a measure of cholinergic neuron function and survival. The concentration of NT-3 (100 ng/ml) used in these experiments increased ChAT activity over control cultures (untreated with NT-3 or a fused pyrrolocarbazole) by 140%.
Methods. Basal forebrain cultures were prepared from embryonic rats (embryonic day 17) and dissociated with the neutral protease Dispase™. Cells were plated at a density of 4×10^5 cells/cm^2 on poly-1-ornithine coated plastic tissue culture plates in a mixture of DMEM and F12 media (50/50 v/v GIBCO) supplemented with 5% horse serum and 0.5% fetal bovine serum. Cells were incubated at 37° C. in a humidified atmosphere of 5% CO2 /95% air for 5 days. ChAT activity was measured as described in Example III(A)(1).
Recombinant rat NT-3 was produced by using a recombinant baculovirus expression vector under the control of the polyhedron virus promoter (Fraser, In Vitro Cell. and Dev. Biol. 25:225-235 (1989)). The plasmid pXM-NT3 (Hallbook et al., Neuron 6:845-858 (1991), which contained the rat NT-3 cDNA clone, was provided by Dr. Ira Black (University of Medicine and Dentistry of New Jersey, Piscataway, N.J.). NT-3 cDNA was subcloned into the transfer vector pVL1392 (In Vitrogen Corp., San Diego, Calif.) for recombinant virus production. Recombinant baculovirus was produced as described in Meyer et al. (Meyer at al., J. Neurochem 62:825-833 (1994)).

[4] = Gallus gallus, DRG neuron, read-out: Neuronal Survival (% of Control)
[5] = 16 μM ATP, 37° C., 15 min, read-out: INHIBITION OF trkA KINASE IC50

Structure (SMILES) | IC50 (protein kinase C) [nM] | IC50 (AT-2 cells; 3 days, MTS) [nM] | Spinal Cord ChAT Activity, % of Control, untreated cultures [1] | further results
O=C1NC(=O)c2c1c1c3ccccc3ccc1c1[nH]c3ccccc3c21 [Compound I-15, 6H, 14H-naphthyl[3,4-a]pyrrolo[3,4-c]carbazole-5,7(5H, 7H)-dione] | 50 |  | 182 % of Control | Neuronal Survival (% of Control) (chick DRG neurons; 100 nM): inactive; Neuronal Survival (% of Control) (chick DRG neurons; 500 nM): inactive; viability at 0.25 µM (chick DRG neurons; [4]): 132%; IC50 (AT-2 cells): 4300 nM; IC50 (trkA tyrosine kinase): > 1000 nM
O=C1NC(=O)c2c1c1c(c3[nH]c4ccccc4c23)CCc2ccccc2-1 [Compound I-14, 12,13-Dihydro-6H, 14H-naphthyl[3,4-a]pyrrolo[3,4-c]carbazole-5,7(5H, 7H)dione] | 15 |  | 153 % of Control | IC50 (AT-2 cells): 3070 nM
O=C1NCc2c1c1c(c3[nH]c4ccc(C=Cc5ccccc5)cc4c23)Cc2ccccc2-1 [Compound I-24, 3-(2-Phenylethenyl)5H,6H,12H,13H-indeno[2,3-a]pyrrolo[3,4-c]carbazole-7(7H)-one] | 8000 | > 10000 | 236 % of Control | ChAT Activity (% of Control) ([2]; 100 nM): inactive; activity at 0.25 µM ([2]; Rattus norvegicus, 120 h, 250 nM, read-out: ChAT Activity (% of Control)): 151%; viability at 0.1 µM (chick DRG neurons; Gallus gallus, DRG neuron, 100 nM, read-out: Neuronal Survival (% of Control)): 154%; viability at 0.25 µM (chick DRG neurons; [4]): 167%; viability at 0.5 µM (chick DRG neurons; Gallus gallus, DRG neuron, 500 nM, read-out: Neuronal Survival (% of Control)): 163%; IC50 (trkA tyrosine kinase; [5]): > 1000 nM
O=C1NCc2c3c(c4[nH]c5ccccc5c4c21)Cc1ccccc1-3 [Compound I-3] | 100 | 380 | 174 % of Control | ChAT Activity (% of Control) ([2]; 100 nM): inactive; ChAT Activity (% of Control) ([2]; 250 nM): inactive; activity at 0.5 µM ([2]; Rattus norvegicus, 120 h, 500 nM, read-out: ChAT Activity (% of Control)): 130%
O=C1NC(=O)c2c1c1c(c3[nH]c4ccc(F)cc4c23)Cc2ccccc2-1 [Compound I-7] | 150 | 1370 | 164 % of Control | ChAT activity in the absence of NT-3 ([3]; compound added alone to basal forebrain neurons, no NT-3): no effect on ChAT activity; ChAT activity in the presence of NT-3 ([3]; with 100 ng/ml NT-3): enhanced ChAT activity; IC50 (trkA tyrosine kinase; [5]): > 1000 nM

Further lines, with some results ahead:

IC50 (protein kinase C) [nM] | IC50 (AT-2 cells; 3 days, MTS) [nM] | Structure (SMILES) | Spinal Cord ChAT Activity, % of Control, untreated cultures [1] | further results
150 | > 10000 | O=C1NC(=O)c2c1c1c3ccccc3[nH]c1c1sc3ccccc3c21 [Compound I-20, 6H, 12-Benzo[b]thieno[2,3-a]pyrrolo[3,4-c]carbazole-5,7(5H,7H)dione] | 130 % of Control | 
 | > 10000 | O=C1NC(=O)c2c1c1c3ccccc3[nH]c1c1oc3ccccc3c21 [Compound I-21, 6H, 13H -Benzofuranyl[2,3-a]pyrrolo[3,4-c]carbazole-5,7(5H, 7H)dione] | 122 % of Control | 
